# Results published in patent publication US8846741B2, “N-substituted aminobenzocycloheptene, aminotetraline, aminoindane and phenalkylamine derivatives, pharmaceutical compositions containing them, and their use in therapy” (AbbVie Deutschland GmbH & Co. KG, priority 2011, dated 2014).
# Legend:
# human GlyT1c transporter = human GlyT1c transporter (Homo sapiens (Human), UniProt P48067); experiment: Radioligand binding assay using recombinant CHO cell membranes expressing human GlyT1; conditions: read-out: radioligand binding Kiapp
# human GlyT1c transporter, sequence (P48067 whole entry): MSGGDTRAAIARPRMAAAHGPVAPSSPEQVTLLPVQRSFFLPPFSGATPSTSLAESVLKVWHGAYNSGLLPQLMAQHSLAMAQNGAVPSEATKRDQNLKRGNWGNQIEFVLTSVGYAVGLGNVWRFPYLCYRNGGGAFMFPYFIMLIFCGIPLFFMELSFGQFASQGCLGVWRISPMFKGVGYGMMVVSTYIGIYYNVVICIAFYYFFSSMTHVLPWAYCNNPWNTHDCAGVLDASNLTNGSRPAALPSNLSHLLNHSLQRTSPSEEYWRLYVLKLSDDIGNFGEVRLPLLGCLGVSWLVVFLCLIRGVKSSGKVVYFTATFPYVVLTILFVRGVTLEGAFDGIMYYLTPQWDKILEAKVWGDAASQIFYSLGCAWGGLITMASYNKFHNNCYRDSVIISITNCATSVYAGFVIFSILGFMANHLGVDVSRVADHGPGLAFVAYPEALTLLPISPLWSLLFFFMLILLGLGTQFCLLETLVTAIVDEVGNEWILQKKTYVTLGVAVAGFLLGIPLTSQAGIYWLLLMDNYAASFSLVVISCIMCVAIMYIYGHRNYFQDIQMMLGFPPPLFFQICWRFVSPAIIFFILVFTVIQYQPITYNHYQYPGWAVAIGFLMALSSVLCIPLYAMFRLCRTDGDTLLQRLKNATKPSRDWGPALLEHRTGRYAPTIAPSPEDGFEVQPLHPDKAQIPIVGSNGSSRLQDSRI
# Method: 2. Radioligand Binding Assays Using Recombinant CHO Cell Membranes Expressing Human GlyT1:
# Radioligand binding to human GlyT1c transporter-expressing membranes was determined as described in Mezler et al., Molecular Pharmacology 74:1705-1715, 2008.
# MDR1 (P-gp) = MDR1 (P-gp) (Homo sapiens (Human), UniProt P08183); experiment: Efflux ratio in MDR1-MDCK bidirectional transport; type: in vitro ADME; conditions: dog; MDR1-MDCK cell monolayers, 1 μM in HBSS-pH 7.4, 1 h incubation at 37 C
# MDR1 (P-gp), sequence (P08183 whole entry, species assumed): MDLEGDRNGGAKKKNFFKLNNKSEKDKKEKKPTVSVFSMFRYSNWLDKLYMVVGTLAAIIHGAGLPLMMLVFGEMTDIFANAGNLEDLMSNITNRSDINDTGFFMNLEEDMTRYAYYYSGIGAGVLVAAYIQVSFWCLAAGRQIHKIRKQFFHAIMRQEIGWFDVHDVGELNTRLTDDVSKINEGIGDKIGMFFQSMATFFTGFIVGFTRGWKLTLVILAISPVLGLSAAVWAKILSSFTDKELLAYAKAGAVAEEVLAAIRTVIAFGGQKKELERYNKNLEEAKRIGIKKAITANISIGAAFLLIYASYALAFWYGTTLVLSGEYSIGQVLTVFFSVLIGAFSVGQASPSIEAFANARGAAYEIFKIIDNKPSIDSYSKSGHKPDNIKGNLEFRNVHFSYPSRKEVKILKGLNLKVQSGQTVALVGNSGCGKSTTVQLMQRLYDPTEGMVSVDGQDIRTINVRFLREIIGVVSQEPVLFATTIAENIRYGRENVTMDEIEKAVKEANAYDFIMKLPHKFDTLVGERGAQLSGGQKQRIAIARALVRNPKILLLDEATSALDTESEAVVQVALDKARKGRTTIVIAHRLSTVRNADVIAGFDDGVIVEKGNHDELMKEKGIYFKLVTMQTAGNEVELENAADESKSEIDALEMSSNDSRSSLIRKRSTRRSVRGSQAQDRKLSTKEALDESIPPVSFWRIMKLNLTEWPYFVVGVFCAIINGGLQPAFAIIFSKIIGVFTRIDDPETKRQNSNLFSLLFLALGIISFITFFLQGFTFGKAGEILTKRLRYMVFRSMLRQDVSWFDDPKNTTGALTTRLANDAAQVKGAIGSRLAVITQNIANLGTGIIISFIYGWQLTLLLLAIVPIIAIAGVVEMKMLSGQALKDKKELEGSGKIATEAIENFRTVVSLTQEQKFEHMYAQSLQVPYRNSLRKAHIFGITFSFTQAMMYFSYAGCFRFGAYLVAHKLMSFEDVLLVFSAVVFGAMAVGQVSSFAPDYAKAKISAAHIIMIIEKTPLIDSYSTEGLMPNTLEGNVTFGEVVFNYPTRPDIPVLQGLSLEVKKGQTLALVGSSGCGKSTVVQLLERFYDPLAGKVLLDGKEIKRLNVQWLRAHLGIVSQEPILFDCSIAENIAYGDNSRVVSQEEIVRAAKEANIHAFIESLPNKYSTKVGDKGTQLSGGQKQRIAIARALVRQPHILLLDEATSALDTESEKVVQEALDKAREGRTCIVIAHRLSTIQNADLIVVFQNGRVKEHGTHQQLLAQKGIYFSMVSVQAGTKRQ
# Method: 3. Determination of Efflux Ratio Using Madin-Darby Canine Kidney Type II Cells
# Bidirectional transport experiments were performed on Madin-Darby Canine Kidney Type II cells over-expressing multidrug resistance protein 1 (MDR1-MDCK) to evaluate the compounds as potential P-gp substrates.
# Compounds were added at 1 μM in HBSS-pH 7.4 (hanks balanced salt solution) to either the apical or basolateral side of MDR1-MDCK cell monolayers grown on Millicell 96-Cell polycarbonate filters. Samples were collected from both apical and basolateral sides at time 0 and after 1 h incubation at 37 C, compounds concentrations were measured by HPLC/MS/MS and permeability coefficients were then determined in both transport directions. The efflux ratio was subsequently calculated from the permeability coefficient.
Structure (SMILES),Ki (human GlyT1c transporter),"efflux ratio at 1 h, 1 μM (MDR1 (P-gp))"
"Cn1cnc(S(=O)(=O)NCc2ccc3c(c2)C(Cc2ccccc2)C(N2CC4CC4C2)CC3)c1.O=C(O)/C=C/C(=O)O (stereo not drawn) [Example 1, cis-N-({7-[3-Azabicyclo[3.1.0]hex-3-yl]-8-benzyl-5,6,7,8-tetrahydronaphthalen-2-yl}methyl)-1-methyl-1H-imidazole-4-sulfonamide(2E)-but-2-enedioate]",< 10 nM,3.2
"Cn1cnc(S(=O)(=O)NCCOc2ccc3c(c2)C(Cc2ccccc2)C(N2CC4CC4C2)CC3)c1 (centres unmarked) [Example 2, N-[2-({7-[3-Azabicyclo[3.1.0]hex-3-yl]-8-benzyl-5,6,7,8-tetrahydronaphthalen-2-yl}oxy)ethyl]-1-methyl-1H-imidazole-4-sulfonamide(2E)-but-2-enedioate]",< 10 nM,
"Cn1cc(S(=O)(=O)NCCOc2ccc3c(c2)C(Cc2ccccc2)C(N2CC4CC4C2)CC3)cn1 (centres unmarked) [Example 3, N-[2-({7-[3-Azabicyclo[3.1.0]hex-3-yl]-8-benzyl-5,6,7,8-tetrahydronaphthalen-2-yl}oxy)ethyl]-1-methyl-1H-pyrazole-4-sulfonamide(2E)-but-2-enedioate]",< 10 nM,
"Cn1cnc(S(=O)(=O)NCCOc2ccc3c(c2)C(Cc2ccccc2F)C(N2CC4CC4C2)CC3)c1 (centres unmarked) [Example 5, N-(2-{[7-[3-Azabicyclo[3.1.0]hex-3-yl]-8-(2-fluorobenzyl)-5,6,7,8-tetrahydronaphthalen-2-yl]oxy}ethyl)-1-methyl-1H-imidazole-4-sulfonamide]",< 1000 nM,
"CCS(=O)(=O)NCc1ccc2c(c1)C(Cc1ccccc1)C(NC1(C#N)COC1)CC2 (centres unmarked) [Example 6, N-((8-Benzyl-7-(3-cyanooxetan-3-ylamino)-5,6,7,8-tetrahydronaphthalen-2-yl)methyl)ethanesulfonamide]",< 1000 nM,
"CCCS(=O)(=O)NCc1ccc2c(c1)C(Cc1ccccc1)C(NC1(C#N)COC1)CC2 (centres unmarked) [Example 7, N-((8-Benzyl-7-(3-cyanooxetan-3-ylamino)-5,6,7,8-tetrahydronaphthalen-2-yl)methyl)propane-1-sulfonamide]",< 1000 nM,
"N#CC1(NC2CCc3ccc(CNS(=O)(=O)C4CCC4)cc3C2Cc2ccccc2)COC1 (centres unmarked) [Example 8, N-((8-Benzyl-7-(3-cyanooxetan-3-ylamino)-5,6,7,8-tetrahydronaphthalen-2-yl)methyl)cyclobutanesulfonamide]",< 1000 nM,
"N#CC1(NC2CCc3ccc(CNS(=O)(=O)CC4CC4)cc3C2Cc2ccccc2)COC1 (centres unmarked) [Example 9, N-((8-Benzyl-7-(3-cyanooxetan-3-ylamino)-5,6,7,8-tetrahydronaphthalen-2-yl)methyl)-1-cyclopropylmethanesulfonamide]",< 100 nM,3.5
"Cn1cnc(S(=O)(=O)NCCOc2cc3c(cc2C#N)CCC(N2CC4CC4C2)C3Cc2ccccc2)c1 (centres unmarked) [Example 10, N-[2-({7-[3-Azabicyclo[3.1.0]hex-3-yl]-8-benzyl-3-cyano-5,6,7,8-tetrahydronaphthalen-2-yl}oxy)ethyl]-1-methyl-1H-imidazole-4-sulfonamide(2E)-but-2-enedioate]",< 1000 nM,
